Where “and” joins values, the source holds several entries; their conditions need not be identical. Identical values can stand only once.
What was measured:
Assay type in all cases: cell-based, human
[1] = tested on: PBMC from allergic donors; experiment: IL-5 ELISPOT with extract-stimulated short-term lines; conditions: positive donor/peptide response
Protocol: (§1) Spots were counted by computer-assisted image analysis (Zeiss, KS-ELISPOT reader, Munich, Germany).
(§2) Each assay was performed in triplicate. The level of statistical significance was determined with a Student's t-test using the mean of triplicate values of the response against relevant pools or individual peptides versus the response against the DMSO control.

[2] = tested on: PBMC from allergic donors; experiment: Dual ELISPOT, total IL-5 and IFN-γ response (SFC); conditions: sum of IFNg and IL-5
Protocol: as §1, §2

[3] = tested on: PBMC from allergic donors; experiment: IFN-γ ELISPOT with extract-stimulated short-term lines; conditions: positive donor/peptide response
Protocol: as §1, §2

SMILES	Response (SFC/10^6) IL-5 ([1]; one donor per table line)	Response (SFC/10^6) Total ([2]; one donor per table line)	Response (SFC/10^6) IFNg ([3]; one donor per table line)	Response (SFC/10^6) IL-5 ([1]; each table line is one donor)	Response (SFC/10^6) Total ([2]; each table line is one donor)	Response (SFC/10^6) IFNg ([3]; each table line is one donor) [SFC/10^6]
CC[C@H](C)[C@H](NC(=O)[C@H](CC(N)=O)NC(=O)[C@H](CCSC)NC(=O)[C@H](CC(N)=O)NC(=O)[C@H](CCC(N)=O)NC(=O)[C@H](CO)NC(=O)[C@H](Cc1ccccc1)NC(=O)[C@@H](NC(=O)[C@@H](NC(=O)[C@H](Cc1c[nH]c2ccccc12)NC(=O)[C@H](CC(C)C)NC(=O)[C@H](C)NC(=O)[C@H](CCCCN)NC(=O)[C@@H](N)CCC(=O)O)[C@@H](C)CC)[C@@H](C)CC)C(=O)N[C@@H](CCCCN)C(=O)O [3324.0615]	67 SFC/10^6	400 SFC/10^6	333 SFC/10^6			
CC[C@H](C)[C@H](N)C(=O)N[C@H](C(=O)N[C@@H](Cc1ccccc1)C(=O)N[C@@H](CO)C(=O)N[C@@H](CCC(N)=O)C(=O)N[C@@H](CC(N)=O)C(=O)N[C@@H](CCSC)C(=O)N[C@@H](CC(N)=O)C(=O)N[C@H](C(=O)N[C@@H](CCCCN)C(=O)N[C@@H](CC(C)C)C(=O)N[C@@H](CCCCN)C(=O)N[C@@H](CCSC)C(=O)N1CCC[C@H]1C(=O)N[C@@H](CC(C)C)C(=O)O)[C@@H](C)CC)[C@@H](C)CC [3324.0618]	3067 SFC/10^6	80 SFC/10^6 and 3067 SFC/10^6 and 73 SFC/10^6	80 SFC/10^6 and 73 SFC/10^6			
CC[C@H](C)[C@H](NC(=O)[C@@H](N)CC(=O)O)C(=O)N[C@@H](Cc1ccc(O)cc1)C(=O)N[C@@H](CC(N)=O)C(=O)N[C@@H](Cc1ccc(O)cc1)C(=O)N[C@@H](CCSC)C(=O)N[C@@H](CCC(=O)O)C(=O)N1CCC[C@H]1C(=O)N[C@@H](Cc1ccc(O)cc1)C(=O)N[C@H](C(=O)N[C@@H](CO)C(=O)N[C@@H](CCCCN)C(=O)N[C@H](C(=O)N[C@@H](CC(=O)O)C(=O)N1CCC[C@H]1C(=O)O)C(C)C)C(C)C [3324.0663]	302 SFC/10^6 and 107 SFC/10^6	73 SFC/10^6 and 302 SFC/10^6 and 107 SFC/10^6	73 SFC/10^6			
CC(C)C[C@H](NC(=O)[C@H](Cc1ccc(O)cc1)NC(=O)[C@H](C)NC(=O)[C@H](CO)NC(=O)[C@H](CCC(=O)O)NC(=O)[C@@H](NC(=O)[C@H](C)NC(=O)[C@H](C)NC(=O)[C@@H](NC(=O)CNC(=O)[C@@H](N)CO)C(C)C)[C@@H](C)O)C(=O)N[C@@H](C)C(=O)N[C@@H](Cc1ccc(O)cc1)C(=O)N[C@@H](CCCNC(=N)N)C(=O)N[C@@H](CC(N)=O)C(=O)O [3324.0829]	347 SFC/10^6 and 167 SFC/10^6	687 SFC/10^6 and 403 SFC/10^6	340 SFC/10^6 and 237 SFC/10^6			
CC[C@H](C)[C@H](NC(=O)CNC(=O)[C@@H](N)CCCNC(=N)N)C(=O)N[C@@H](CCC(=O)O)C(=O)N[C@@H](Cc1ccc(O)cc1)C(=O)N[C@H](C(=O)N[C@@H](CCC(N)=O)C(=O)N[C@@H](Cc1c[nH]cn1)C(=O)N[C@@H](CC(N)=O)C(=O)NCC(=O)N[C@H](C(=O)N[C@H](C(=O)N[C@@H](CCC(N)=O)C(=O)N[C@@H](CCC(=O)O)C(=O)N[C@@H](CO)C(=O)O)C(C)C)C(C)C)[C@@H](C)CC [3324.0831]	567 SFC/10^6 and 103 SFC/10^6	567 SFC/10^6 and 323 SFC/10^6	220 SFC/10^6			
CC(C)[C@H](NC(=O)CNC(=O)[C@H](CO)NC(=O)[C@H](Cc1ccccc1)NC(=O)[C@H](C)NC(=O)[C@H](Cc1c[nH]c2ccccc12)NC(=O)[C@H](CS)NC(=O)[C@@H](N)CO)C(=O)N[C@@H](C)C(=O)N[C@@H](C)C(=O)N[C@H](C(=O)N[C@@H](CCC(=O)O)C(=O)N[C@@H](CO)C(=O)N[C@@H](C)C(=O)N[C@@H](Cc1ccc(O)cc1)C(=O)O)[C@@H](C)O [3324.0832]	460 SFC/10^6 and 773 SFC/10^6	1303 SFC/10^6 and 1007 SFC/10^6	843 SFC/10^6 and 233 SFC/10^6			
CC[C@H](C)[C@H](NC(=O)[C@@H](NC(=O)[C@@H](NC(=O)[C@H](C)NC(=O)[C@@H](NC(=O)[C@H](C)NC(=O)[C@H](CO)NC(=O)[C@H](Cc1c[nH]cn1)NC(=O)[C@@H](NC(=O)[C@H](CCC(N)=O)NC(=O)[C@H](C)NC(=O)[C@H](CC(C)C)NC(=O)[C@H](C)NC(=O)[C@H](CCC(=O)O)NC(=O)[C@@H](N)CCCNC(=N)N)[C@@H](C)O)[C@@H](C)CC)C(C)C)[C@@H](C)CC)C(=O)O [3324.0840]	477 SFC/10^6 and 900 SFC/10^6	1883 SFC/10^6 and 900 SFC/10^6	1407 SFC/10^6			
CC[C@H](C)[C@H](NC(=O)[C@H](CCSC)NC(=O)[C@H](CCCNC(=N)N)NC(=O)[C@H](Cc1ccccc1)NC(=O)[C@H](CCCCN)NC(=O)[C@@H](NC(=O)[C@H](CCSC)NC(=O)[C@H](CC(N)=O)NC(=O)[C@H](Cc1ccc(O)cc1)NC(=O)[C@@H](NC(=O)[C@@H](N)CCC(=O)O)[C@@H](C)CC)C(C)C)C(=O)N[C@@H](C)C(=O)NCC(=O)N[C@@H](CCC(N)=O)C(=O)N[C@@H](CCC(=O)O)C(=O)O [3324.0978]	167 SFC/10^6 and 1100 SFC/10^6	167 SFC/10^6 and 1100 SFC/10^6 and 667 SFC/10^6	667 SFC/10^6			
CC[C@H](C)[C@H](NC(=O)[C@H](CCC(=O)O)NC(=O)[C@H](CCCNC(=N)N)NC(=O)[C@H](Cc1c[nH]c2ccccc12)NC(=O)[C@H](CCCNC(=N)N)NC(=O)[C@H](Cc1c[nH]cn1)NC(=O)[C@@H](N)CCC(=O)O)C(=O)N[C@@H](Cc1ccc(O)cc1)C(=O)N[C@@H](CC(N)=O)C(=O)N[C@@H](CCSC)C(=O)N[C@H](C(=O)N[C@@H](CCCCN)C(=O)N[C@@H](Cc1ccccc1)C(=O)N[C@@H](CCCNC(=N)N)C(=O)N[C@@H](CCSC)C(=O)O)C(C)C [3324.0986]	300 SFC/10^6 and 80 SFC/10^6 and 402 SFC/10^6	300 SFC/10^6 and 1007 SFC/10^6 and 80 SFC/10^6 and 402 SFC/10^6	1007 SFC/10^6			
CC[C@H](C)[C@H](NC(=O)[C@@H]1CCCN1C(=O)[C@H](CC(N)=O)NC(=O)[C@H](C)NC(=O)[C@H](Cc1ccc(O)cc1)NC(=O)[C@@H](N)CCCNC(=N)N)C(=O)N[C@@H](C)C(=O)N[C@@H](Cc1ccccc1)C(=O)N[C@@H](Cc1ccccc1)C(=O)N[C@@H](CCCNC(=N)N)C(=O)N[C@@H](CCCCN)C(=O)N[C@@H](CCC(=O)O)C(=O)N1CCC[C@H]1C(=O)N[C@@H](CC(C)C)C(=O)N[C@@H](CCCCN)C(=O)O [3324.1138]	1697 SFC/10^6	2137 SFC/10^6	440 SFC/10^6			
CC[C@H](C)[C@H](NC(=O)[C@H](CCC(=O)O)NC(=O)[C@H](Cc1c[nH]c2ccccc12)NC(=O)[C@@H](NC(=O)CNC(=O)[C@@H](N)CC(=O)O)C(C)C)C(=O)N[C@@H](CCCCN)C(=O)N[C@@H](CO)C(=O)N[C@@H](CC(=O)O)C(=O)N[C@@H](CCCCN)C(=O)N1CCC[C@H]1C(=O)N[C@@H](CC(C)C)C(=O)N[C@@H](CCCCN)C(=O)NCC(=O)N1CCC[C@H]1C(=O)O [3324.1139]	83 SFC/10^6	103 SFC/10^6 and 167 SFC/10^6	103 SFC/10^6 and 83 SFC/10^6	577 SFC/10^6 and 287 SFC/10^6	577 SFC/10^6 and 287 SFC/10^6	
CC[C@H](C)[C@H](NC(=O)[C@@H](NC(=O)[C@H](CCC(=O)O)NC(=O)[C@H](CC(=O)O)NC(=O)[C@H](Cc1ccccc1)NC(=O)[C@@H](NC(=O)[C@@H](N)CC(N)=O)C(C)C)C(C)C)C(=O)N1CCC[C@H]1C(=O)N[C@H](C(=O)N[C@@H](C)C(=O)N[C@@H](Cc1ccccc1)C(=O)N[C@H](C(=O)N[C@H](C(=O)NCC(=O)N[C@@H](CCCCN)C(=O)O)C(C)C)[C@@H](C)O)[C@@H](C)O [3324.1141]				2258 SFC/10^6 and 820 SFC/10^6	2258 SFC/10^6 and 1083 SFC/10^6	263
CC[C@H](C)[C@H](NC(=O)[C@H](CC(N)=O)NC(=O)[C@H](CC(C)C)NC(=O)[C@@H](NC(=O)[C@H](CC(C)C)NC(=O)[C@@H](NC(=O)[C@H](CCCCN)NC(=O)[C@H](C)NC(=O)[C@H](CC(=O)O)NC(=O)[C@@H](N)CO)[C@@H](C)O)C(C)C)C(=O)N[C@@H](CCCCN)C(=O)N[C@@H](Cc1ccc(O)cc1)C(=O)N[C@H](C(=O)N[C@@H](CCCNC(=N)N)C(=O)N1CCC[C@H]1C(=O)O)[C@@H](C)O [3324.1142]				227 SFC/10^6 and 147 SFC/10^6 and 1547 SFC/10^6	227 SFC/10^6 and 147 SFC/10^6 and 1697 SFC/10^6	150
CC[C@H](C)[C@H](NC(=O)[C@@H](NC(=O)[C@H](CCCNC(=N)N)NC(=O)[C@H](CC(C)C)NC(=O)[C@H](C)NC(=O)[C@H](CCC(=O)O)NC(=O)[C@@H](NC(=O)[C@H](CC(C)C)NC(=O)[C@@H](NC(=O)[C@H](C)NC(=O)[C@@H](NC(=O)[C@H](Cc1ccc(O)cc1)NC(=O)[C@H](C)NC(=O)[C@@H](N)CC(=O)O)C(C)C)[C@@H](C)O)[C@@H](C)O)C(C)C)C(=O)N[C@@H](C)C(=O)O [3324.1167]				410 SFC/10^6 and 1743 SFC/10^6	1427 SFC/10^6 and 1743 SFC/10^6	1017
CC[C@H](C)[C@H](NC(=O)[C@H](CCCCN)NC(=O)[C@H](CCC(=O)O)NC(=O)[C@@H](NC(=O)[C@@H](N)CC(C)C)[C@@H](C)CC)C(=O)N[C@@H](CC(N)=O)C(=O)N[C@@H](C)C(=O)NCC(=O)N[C@@H](Cc1ccccc1)C(=O)N[C@@H](CCCCN)C(=O)N[C@@H](C)C(=O)N[C@@H](C)C(=O)N[C@H](C(=O)N[C@@H](C)C(=O)N[C@@H](C)C(=O)O)C(C)C [3324.1175]				900 SFC/10^6 and 1202 SFC/10^6 and 263 SFC/10^6	1860 SFC/10^6 and 1202 SFC/10^6 and 263 SFC/10^6	960

Reference: patent publication US10918713B2, “Epitopes from allergen proteins and methods and uses for immune response modulation” (LA JOLLA INSTITUTE FOR ALLERGY AND IMMUNOLOGY, priority 2012, dated 2021)
